Assays:
[1] = system: prostate carcinoma PPC-1 cell line; assay: MTT cell viability assay, prostate carcinoma PPC-1; format: cell-based, human; details: 100 µM, 72 h, MTT
Text: (§1) The human malignant melanoma cell line IGR39, human triple-negative breast cancer MDA-MB-231, and human pancreatic carcinoma cell line Panc-1 were obtained from the American Type Culture Collection (ATCC, Manassas, VA, USA). Human foreskin fibroblasts (HF) CRL-4001 were originally obtained from ATCC and kindly provided by Prof. Helder Santos (University of Helsinki, Finland). Primary prostate carcinoma PPC-1 cell line was kindly provided by Prof. Tambet Teesalu (University of Tartu, Estonia). All cell lines were cultured in Dulbecco’s Modified Eagle’s GlutaMAX medium (Gibco (Carlsbad, CA, USA)), supplemented with 10,000 U/mL penicillin, 10 mg/mL streptomycin (Gibco), and 10% fetal bovine serum (Gibco). Cell cultures were grown at 37 °C in a humidified atmosphere containing 5% CO2. They were used until the passage of 20.
(§2) The effect of synthesized compounds on cell viability was studied using 3-(4,5-dimethylthiazol-2-yl)-2,5-diphenyltetrazolium bromide (MTT; Sigma-Aldrich Co., St Louis, MO, USA) assay, as described elsewhere. To summarize, the cells were seeded in triplicates in 96-well Corning plates (IGR39, MDA-MB-231, Panc-1 and PPC1: 4 × 10^3 cells/well; HF: 5 × 10^3 cells/well). The cells were treated with 100 μM of tested compounds after 24 h of incubation. After 72 h, the MTT reagent was added and the formazan crystals that had formed were dissolved in DMSO (Sigma-Aldrich Co., St. Louis, MO, USA). The absorbance was determined with a multidetection microplate reader at 570 and 630 nm.
(§3) The compound serial dilutions ranging from 50 µM to 1.56 µM were introduced to the cells. The Hill equation was used to calculate the EC50 value, or the concentration of a compound that results in a 50% reduction in the metabolic activity of cells.

[2] = system: tested cancer cell lines (IGR39, PPC-1, MDA-MB-231, Panc-1); assay: MTT cell viability assay, statements on the tested cancer cell lines together; format: cell-based, human; details: for inhibition of cancer cell viability: 100 µM, 72 h, MTT; for selectivity against cancer cells: after determination of the dose-effect correlation
Method: as §2, §3

[3] = Ferric reducing antioxidant power (FRAP) assay; details: for FRAP reducing power (Fe^2+): absorbance at 593 nm; for reducing power activity compared to the control antioxidant: vs protocatechuic acid
Text: The ferric reducing antioxidant power (FRAP) assay was used to evaluate the antioxidant potential of new compounds 2–17. Antioxidant assays are based on determining reduction power reactions (e.g., reduction Fe^3+ to Fe^2+) or scavenging free radicals (DPPH, ABTS). The FRAP assay is based on the method of single electron transfer (SET), measuring the reduction in the complex of ferric ions (Fe^3+)-ligand to the blue ferrous complex (Fe^2+). This method uses 2,4,6-tripyridyl-s-triazine (TPTZ) as the linking ligand to the iron. The antioxidant activity of the synthesized compounds was compared with that of the well-known antioxidant protocatechuic acid. […] PCA is a building block for pharmaceuticals and is widely used to produce many medicinal products such as veratridine (sodium channel inactivation inhibitor), erlotinib (antineoplastic), Picatin II (treatment of hepatitis B), itopride hydrochloride (gastrointestinal motility drug). PCA can also cause the induction of apoptosis of human leukemia cells. Moreover, the antioxidant activity of PCA is based on the reduction in free radical formation via the up-regulation of genes encoding enzymes with neutralizing activities.
Antioxidant activity was determined as an increase in absorbance at 593 nm, and the results were expressed as of Fe^2+ μmol/L and in relation to antioxidants, and protocatechuic acid, as positive control. The FRAP reagent contained 2.5 mL of 10 mM TPTZ solution in 40 mM HCl as well as 2.5 mL of FeCl3 (20 mM) and 25 mL of acetate buffer (0.3 M, pH = 3.6). Then, 100 μL of analyzed compounds (20 mM) were mixed with 3 mL of the FRAP reagent. The absorbance of the reaction mixture was measured spectrophotometrically at 593 nm using a UV-1280 UV-VIS spectrophotometer (Shimadzu Corporation, Kyoto, Japan). To compose the calibration curve, five concentrations of FeSO4·7H2O (5, 10, 15, 20, 25 μM) were used, and the absorbance was measured as a sample solution.

[4] = system: human melanoma IGR39 cell line; assay: MTT cell viability assay, melanoma IGR39; format: cell-based; details: 100 µM, 72 h, MTT
Text: as §1, §2, §3

[5] = system: human foreskin fibroblasts (HF) CRL-4001; assay: MTT cell viability assay, fibroblasts; format: cell-based; details: 100 µM, 72 h
Text: as §1, §2, §3

Row | melting point [°C] | SMILES | effect on cell viability compared among the cell lines [1] | inhibition of cancer cell viability [2] | FRAP reducing power (Fe^2+) [3] [µmol/L] | reducing power activity compared to the control antioxidant [3] | effect on cell viability compared among the cell lines [4] | selectivity against cancer cells [2] | effect on fibroblasts compared to cancer cell lines [5] | antioxidant activity (FRAP) relative to protocatechuic acid [3] [times]
1 | 234 to 235 | O=C(NN=Cc1ccc[nH]1)C1CC(=O)N(c2ccc(Nc3ccccc3)cc2)C1 (stereo not shown) [Compound 11, N′-((1H-pyrrol-2-yl)methylene)-5-oxo-1-(4-(phenylamino)phenyl)pyrrolidine-3-carbohydrazide] | most active against the prostate carcinoma cell line | less than 20% |  |  |  |  |  | 
2 | 225 to 226 | CC(=NNC(=O)C1CC(=O)N(c2ccc(Nc3ccccc3)cc2)C1)c1ccccc1 (stereo not shown) [Compound 15, 5-Oxo-1-(4-(phenylamino)phenyl)-N′-(1-phenylethylidene)pyrrolidine-3-carbohydrazide] |  | less than 20% | 123.05 | higher than those of known antioxidants used as the controls | strongest effect on melanoma cells |  |  | 
3 | 209 to 210 | O=C(NN=Cc1ccc(Cl)cc1)C1CC(=O)N(c2ccc(Nc3ccccc3)cc2)C1 (stereo not shown) [Compound 4, N′-(4-chlorobenzylidene)-5-oxo-1-(4-(phenylamino)phenyl)pyrrolidine-3-carbohydrazide] | most active against the prostate carcinoma cell line |  |  |  |  | nonselective against cancer cells |  | 
4 | 218 to 219 | CN(C)c1ccc(C=NNC(=O)C2CC(=O)N(c3ccc(Nc4ccccc4)cc3)C2)cc1 (stereo not shown) [Compound 7, N′-(4-(dimethylamino)benzylidene)-5-oxo-1-(4-(phenylamino)phenyl)pyrrolidine-3-carbohydrazide] |  |  |  | higher than those of known antioxidants used as the controls |  |  | affected fibroblasts more than the tested cancer cell lines | 

Further lines, the compound ahead of its results:

Row | SMILES | melting point [°C] | effect on cell viability compared among the cell lines [1] | inhibition of cancer cell viability [2] | FRAP reducing power (Fe^2+) [3] [µmol/L] | reducing power activity compared to the control antioxidant [3] | effect on cell viability compared among the cell lines [4] | selectivity against cancer cells [2] | effect on fibroblasts compared to cancer cell lines [5] | antioxidant activity (FRAP) relative to protocatechuic acid [3] [times]
5 | O=C(NN=Cc1ccccc1[N+](=O)[O-])C1CC(=O)N(c2ccc(Nc3ccccc3)cc2)C1 (stereo not shown) [Compound 9, N′-(2-nitrobenzylidene)-5-oxo-1-(4-(phenylamino)phenyl)pyrrolidine-3-carbohydrazide] | 192 to 193 |  | less than 20% | 118.32 | higher than those of known antioxidants used as the controls | strongest effect on melanoma cells |  |  | 
6 | O=C(NN=Cc1ccc(Br)cc1)C1CC(=O)N(c2ccc(Nc3ccccc3)cc2)C1 (stereo not shown) [Compound 3, N′-(4-bromobenzylidene)-5-oxo-1-(4-(phenylamino)phenyl)pyrrolidine-3-carbohydrazide] | 198 to 199 |  |  | 120.08 | higher than those of known antioxidants used as the controls | strongest effect on melanoma cells | nonselective against cancer cells |  | 
7 | CC(=NNC(=O)C1CC(=O)N(c2ccc(Nc3ccccc3)cc2)C1)c1ccc(N)cc1 (stereo not shown) [Compound 16, N′-(1-(4-aminophenyl)ethylidene)-5-oxo-1-(4-(phenylamino)phenyl)pyrrolidine-3-carbohydrazide] | 230 to 231 |  | less than 20% | 132.14 | higher than those of known antioxidants used as the controls | strongest effect on melanoma cells |  |  | 1.2
8 | O=C(O)c1ccc(O)c(O)c1 [protocatechuic acid, 3,4-dihydroxybenzoic acid, reference compound] |  |  |  | 109.05 |  |  |  |  | 

Source: PMC10871122, “Synthesis and In Vitro Evaluation as Potential Anticancer and Antioxidant Agents of Diphenylamine-Pyrrolidin-2-one-Hydrazone Derivatives” (International Journal of Molecular Sciences, 2023)
